Reference: patent publication US20250009819A1, “NOVEL PROBIOTICS AND USE THEREOF” (PBLBIOLAB CO., LTD., priority 2021, published 2025)

What was measured:
[1] = Antioxidant activity (DPPH, in vitro); assay type: biochemical; settings: DPPH 0.2 mM; lactic acid bacteria suspension 1×10^8 CFU/ml; 37° C. 20 min
Experimental: DPPH (2,2-Diphenyl-1-picrylhydrazyl) was dissolved in ethanol to a concentration of 0.2 mM to prepare DPPH solution. Lactic acid bacteria suspension (1×10^8 CFU/ml) or vitamin C solution (1 g/ml) was added to 0.1 ml of the above DPPH solution and incubated at 37° C. for 20 min. The culture was centrifuged at 3000 rpm for 5 min to obtain a supernatant. The absorbance of the supernatant was then measured at 517 nm and the antioxidant activity of the lactic acid bacteria was calculated.

TNF-α = TNF-α expression in LPS-treated macrophages (ELISA); assay type: cell-based, C57BL/6 mice; settings: macrophages treated with lactic acid bacteria and LPS for 24 hours
Experimental: (§1) C57BL/6 mice (male, 6 weeks old, 20-23 g) were subjected to an intraperitoneal injection of 2 ml of sterile 4% thioglycolate solution, and after 96 hours, the mice were anesthetized and injected with 8 ml of RPMI 1640 medium through the peritoneal cavity. Then, after 5-10 minutes, the RPMI medium (macrophages) in the mouse peritoneal cavity was extracted, centrifuged at 1000 g for 10 minutes, and washed again with RPMI 1640 medium twice. Macrophages were seeded in 24-well plates at a count of 0.5×10^6 in each well, and treated with lactic acid bacteria and LPS, an inflammatory response-inducing substance, for 24 hours. TNF-α and IL-10 cytokine expression amount in the culture supernatant was then measured by ELISA Kit.

IL-10 = IL-10 expression in LPS-treated macrophages (ELISA); assay type: cell-based, C57BL/6 mice; settings: macrophages treated with lactic acid bacteria and LPS for 24 hours
Experimental: as §1

BDNF = BDNF expression in SH-SY5Y cells; assay type: cell-based; settings: LPS 200 ng/ml; lactic acid bacteria 1×10^4 CFU/ml; 24 h
Experimental: (§2) SH-SY5Y cells obtained from the Korean Cell Line Bank were cultured in DMEM medium supplemented with 10% FBS and 1% antibiotics, and dispensed at 2×10^6 cells per well in a 12-well plate. Then, LPS (200 ng/ml) was added to each well along with lactic acid bacteria (1×10^4 CFU/ml) and incubated for 24 h. The cells and supernatants were collected, sonicated and centrifuged, and the amount of BDNF in the supernatant was measured by ELISA kit.

Neuropeptide Y (NPY) = Neuropeptide Y (NPY) expression in PC12 phaeochromocytoma cells; assay type: cell-based; settings: LPS 200 ng/ml; lactic acid bacteria 1×10^4 CFU/ml; 24 hr
Experimental: as §2, with “PC12” for “SH-SY5Y”, “1×10^6” for “2×10^6”, “hr.” for “h.”, “NPY” for “BDNF”

Clostridium difficile = Clostridium difficile proliferation in gut microbiota (PCR); assay type: cell-based; settings: human feces culture; lactic acid bacteria 1×10^6 CFU/mL; anaerobic 24 hr
Experimental: Fresh human feces were suspended in anaerobic medium (GAM, Nissui Pharmaceutical Co., Ltd., Japan) and allowed to stand for 10 min. The supernatant was diluted with 10,000-fold anaerobic medium, 0.05 mL of the dilution was transplanted into 5 mL of freshly made anaerobic medium, and lactic acid bacteria (1×10^6 CFU/mL) were implanted and incubated anaerobically for 24 hr. This culture medium was divided into two, one was centrifuged (5000 rpm, 20 minutes), the precipitated DNA was isolated using the QIAamp DNA stool mini kit (Qiagen, Germany), and Clostridium difficile (primer: forward, 5′-[…]-3′ (SEQ ID NO: 4); reverse, 5′-[…]-3′ (SEQ ID NO: 5) was quantified by PCR. The reaction product was first treated at 95° C. for 30 seconds, followed by 42 cycles of 5 seconds at 95° C. and 30 seconds at 72° C. for analysis. In addition, one culture medium was sonicated, centrifuged, and filter-sterilized, and the amount of LPS in the supernatant was measured using an ELISA kit.

gut microbiota = test: LPS production in gut microbiota (ELISA); assay type: cell-based; settings: human feces culture; lactic acid bacteria 1×10^6 CFU/mL; anaerobic 24 hr
Experimental: Fresh human feces were suspended in anaerobic medium (GAM, Nissui Pharmaceutical Co., Ltd., Japan) and allowed to stand for 10 min. The supernatant was diluted with 10,000-fold anaerobic medium, 0.05 mL of the dilution was transplanted into 5 mL of freshly made anaerobic medium, and lactic acid bacteria (1×10^6 CFU/mL) were implanted and incubated anaerobically for 24 hr.

Row | Substance | Antioxidant activity [1] | Macrophage Inhibition of TNF-α expression (TNF-α) | Macrophage Induction of IL-10 expression (IL-10) | SHSY5Y cell Induction of BDNF expression (BDNF) | PC12 cell Induction of NPY expression (Neuropeptide Y (NPY)) | Gut microbiota Inhibition of difficile bacteria proliferation (Clostridium difficile) | Gut microbiota Inhibition of LPS production (gut microbiota)
1 | Bifidobacterium catenulatum NK227 | + (weakly (+; >20-60%)) | + (weakly (+; >20-60%)) | + (weakly (+; >20-60%)) | − (not or less than 20% (−; <20%)) | + (weakly (+; >20-60%)) | + (weakly (+; >20-60%)) | + (weakly (+; >20-60%))
2 | Bifidobacterium infantis NK213 | + (weakly (+; >20-60%)) | + (weakly (+; >20-60%)) | + (weakly (+; >20-60%)) | − (not or less than 20% (−; <20%)) | − (not or less than 20% (−; <20%)) | + (weakly (+; >20-60%)) | − (not or less than 20% (−; <20%))
3 | Bifidobacterium infantis NK214 | ++ (strongly (++; >60-90%)) | − (not or less than 20% (−; <20%)) | − (not or less than 20% (−; <20%)) | − (not or less than 20% (−; <20%)) | + (weakly (+; >20-60%)) | + (weakly (+; >20-60%)) | + (weakly (+; >20-60%))
4 | Bifidobacterium infantis NK215 | ++ (strongly (++; >60-90%)) | + (weakly (+; >20-60%)) | + (weakly (+; >20-60%)) | − (not or less than 20% (−; <20%)) | + (weakly (+; >20-60%)) | + (weakly (+; >20-60%)) | + (weakly (+; >20-60%))
5 | Bifidobacterium longum NK216 | ++ (strongly (++; >60-90%)) | − (not or less than 20% (−; <20%)) | − (not or less than 20% (−; <20%)) | − (not or less than 20% (−; <20%)) | + (weakly (+; >20-60%)) | − (not or less than 20% (−; <20%)) | ++ (strongly (++; >60-90%))
6 | Bifidobacterium longum NK218 | + (weakly (+; >20-60%)) | − (not or less than 20% (−; <20%)) | − (not or less than 20% (−; <20%)) | + (weakly (+; >20-60%)) | + (weakly (+; >20-60%)) | + (weakly (+; >20-60%)) | + (weakly (+; >20-60%))
7 | Bifidobacterium pseudocatenulatum NK228 | + (weakly (+; >20-60%)) | − (not or less than 20% (−; <20%)) | − (not or less than 20% (−; <20%)) | + (weakly (+; >20-60%)) | + (weakly (+; >20-60%)) | − (not or less than 20% (−; <20%)) | ++ (strongly (++; >60-90%))
8 | Bifidobacterium pseudocatenulatum NK230 | + (weakly (+; >20-60%)) | − (not or less than 20% (−; <20%)) | − (not or less than 20% (−; <20%)) | + (weakly (+; >20-60%)) | + (weakly (+; >20-60%)) | + (weakly (+; >20-60%)) | + (weakly (+; >20-60%))
9 | Lactobacillus casei NK193 | + (weakly (+; >20-60%)) | + (weakly (+; >20-60%)) | + (weakly (+; >20-60%)) | + (weakly (+; >20-60%)) | − (not or less than 20% (−; <20%)) | − (not or less than 20% (−; <20%)) | + (weakly (+; >20-60%))
10 | Lactobacillus casei NK194 | ++ (strongly (++; >60-90%)) | − (not or less than 20% (−; <20%)) | + (weakly (+; >20-60%)) | + (weakly (+; >20-60%)) | + (weakly (+; >20-60%)) | + (weakly (+; >20-60%)) | + (weakly (+; >20-60%))
11 | Lactobacillus casei NK195 | + (weakly (+; >20-60%)) | + (weakly (+; >20-60%)) | + (weakly (+; >20-60%)) | − (not or less than 20% (−; <20%)) | − (not or less than 20% (−; <20%)) | + (weakly (+; >20-60%)) | − (not or less than 20% (−; <20%))
12 | Lactobacillus casei NK196 | ++ (strongly (++; >60-90%)) | − (not or less than 20% (−; <20%)) | − (not or less than 20% (−; <20%)) | − (not or less than 20% (−; <20%)) | + (weakly (+; >20-60%)) | + (weakly (+; >20-60%)) | + (weakly (+; >20-60%))
13 | Lactobacillus gasseri NK185 | ++ (strongly (++; >60-90%)) | + (weakly (+; >20-60%)) | + (weakly (+; >20-60%)) | − (not or less than 20% (−; <20%)) | + (weakly (+; >20-60%)) | + (weakly (+; >20-60%)) | − (not or less than 20% (−; <20%))
14 | Lactobacillus gasseri NK186 | + (weakly (+; >20-60%)) | + (weakly (+; >20-60%)) | + (weakly (+; >20-60%)) | − (not or less than 20% (−; <20%)) | − (not or less than 20% (−; <20%)) | + (weakly (+; >20-60%)) | + (weakly (+; >20-60%))
15 | Lactobacillus gasseri NK187 | + (weakly (+; >20-60%)) | + (weakly (+; >20-60%)) | − (not or less than 20% (−; <20%)) | + (weakly (+; >20-60%)) | − (not or less than 20% (−; <20%)) | + (weakly (+; >20-60%)) | + (weakly (+; >20-60%))
